63 molecules from ChEMBL document CHEMBL1122107, “Structure-antitumor activity relationships of 9-anilinoacridines using pattern recognition” (1982) can be followed below.

The test system of this test is L1210. Briefly: Tumor cell selectivity determined as maximal percent increase in life span (ILSmax) at LD10 dosage level in L1210 cells. The test is classed as functional, Mus musculus.

The structures appear in SMILES notation.

In turn, `N=C(N)NCCCS(=O)(=O)Nc1ccc(Nc2c3ccccc3nc3cc([N+](=O)[O-])ccc23)cc1` registered an ILSmax of 200%.

For `O=[N+]([O-])c1ccc(S(=O)(=O)Nc2ccc(Nc3c4ccccc4nc4cc([N+](=O)[O-])ccc34)cc2)cc1`, the ILSmax is on record as 200%.

The molecule `O=S(=O)(CCl)Nc1ccc(Nc2c3ccccc3nc3ccccc23)cc1` yielded an ILSmax of 55%.

`CCOC(=O)NNc1ccc(Nc2c3ccccc3nc3ccccc23)cc1` had an ILSmax of 75%.

Molecule `CCCN(C)/N=N/c1ccc2c(Nc3ccc(NS(C)(=O)=O)cc3)c3ccccc3nc2c1` had an ILSmax of 98%.

The molecule `CC(=O)Nc1ccc2c(Nc3ccc(NS(C)(=O)=O)cc3)c3cccc(C)c3nc2c1C` displayed an ILSmax of 60%.

Take `NC(Cc1ccc(NC(=O)Nc2ccc(N=c3c4ccccc4[nH]c4cc([N+](=O)[O-])ccc34)cc2)cc1)C(=O)O` (stereo not drawn): the ILSmax is reported as 80%.

The molecule `CCCC(=O)N(c1ccc(Nc2c3ccc([N+](=O)[O-])cc3nc3c(C)cccc23)cc1)S(C)(=O)=O` returned an ILSmax of 85%.

In the case of `N=C(N)NCCCCS(=O)(=O)Nc1ccc(Nc2c3ccccc3nc3cc(Cl)ccc23)cc1`, the ILSmax was 25%.

As to `CC(=O)c1ccc(N=c2c3ccccc3[nH]c3cc(N)ccc23)cc1`, the ILSmax is 52%.

The molecule `CC(=O)N(C)c1ccc(Nc2c3ccccc3nc3ccccc23)cc1` gave an ILSmax of 50%.

For the molecule `CCCCCS(=O)(=O)Nc1ccc(Nc2c3ccccc3nc3c(C(N)=O)cccc23)c(OC)c1`, the ILSmax was 93%.

`O=C(O)CCCCCCc1ccc(Nc2c3ccccc3nc3ccccc23)cc1` had an ILSmax of 74%.

With `CCCCS(=O)(=O)Nc1ccc(Nc2c3ccccc3nc3cc(NC(C)=O)ccc23)cc1`, the ILSmax worked out at 83%.

In turn, `N=C(N)Nc1ccc(NC(=O)Nc2ccc(N=c3c4ccccc4[nH]c4cc([N+](=O)[O-])ccc34)cc2)cc1` displayed an ILSmax of 200%.

For `O=C(O)c1ccc(S(=O)(=O)Nc2ccc(Nc3c4ccccc4nc4ccccc34)cc2)cc1`, the ILSmax turned out to be 135%.

The molecule `CNc1ccc2c(Nc3ccc(NS(C)(=O)=O)cc3OC)c3ccccc3nc2c1` had an ILSmax of 83%.

As for `NCCc1ccc(NC(=O)Nc2ccc(N=c3c4ccccc4[nH]c4ccccc34)cc2)cc1`, the ILSmax came out at 170%.

As for `Nc1ccc2c(Nc3ccc(C(=O)O)cc3)c3ccccc3nc2c1`, the ILSmax amounted to 25%.

`CS(=O)(=O)Nc1ccc(Nc2c3ccccc3nc3ccccc23)c(O)c1` came in with an ILSmax of 85%.

For the molecule `CCN(CC)/N=N/c1ccc2c(Nc3ccc(NS(C)(=O)=O)cc3)c3ccccc3nc2c1`, the ILSmax was 95%.

As to `COc1cc(NS(C)(=O)=O)ccc1Nc1c2cccc(C)c2nc2c(C)c([N+](=O)[O-])ccc12`, the ILSmax turned out to be 56%.

Molecule `NCCCCCCc1ccc(N=c2c3ccccc3[nH]c3cc([N+](=O)[O-])ccc23)cc1` displayed an ILSmax of 25%.

For the molecule `CS(=O)(=O)Nc1ccc(Nc2c3ccccc3nc3ccccc23)cn1`, the ILSmax was found to be 141%.

Take `CCCCNC(=O)c1cccc2c(Nc3ccc(NS(C)(=O)=O)cc3OC)c3ccccc3nc12`: the ILSmax is listed as 95%.

In turn, `NC(=O)CCCCCc1ccc(Nc2c3ccccc3nc3ccccc23)cc1` came in with an ILSmax of 97%.

The molecule `COc1cc(NS(C)(=O)=O)ccc1Nc1c2ccc(C)cc2nc2c(OC)cccc12` showed an ILSmax of 72%.

For the molecule `CS(=O)(=O)Nc1ccc(Nc2c3ccccc3nc3cccc([N+](=O)[O-])c23)cc1`, the ILSmax is reported as 25%.

`NCCc1ccc(Nc2c3ccccc3nc3cc([N+](=O)[O-])ccc23)cc1` gave an ILSmax of 25%.

Turning to `COC(=O)N(c1ccc(Nc2c3ccccc3nc3cc(NC(C)=O)ccc23)cc1)S(C)(=O)=O`, the ILSmax was 125%.

Take `COc1ccc2c(Nc3ccc(NS(C)(=O)=O)cc3)c3cccc(C)c3nc2c1`: the ILSmax is listed as 75%.

For the molecule `COc1cc(N)ccc1N=c1c2ccccc2[nH]c2c(C)cccc12`, the ILSmax is 120%.

`CS(=O)(=O)Nc1ccc(Nc2c3cc(N)ccc3nc3ccc(N)cc23)cc1` showed an ILSmax of 35%.

`CN(C)c1ccc(NC(=O)Nc2ccc(Nc3c4ccccc4nc4ccccc34)cc2)cc1` showed an ILSmax of 170%.

With `Cc1ccc2c(Nc3ccc(NS(C)(=O)=O)cc3)c3ccccc3nc2c1`, the ILSmax was found to be 85%.

Consider `Nc1ccc(Nc2c3ccccc3nc3ccccc23)cc1`, for which the ILSmax is listed as 25%.

In turn, `NCCCCc1ccc(NC(=O)Nc2ccc(N=c3c4ccccc4[nH]c4ccccc34)cc2)cc1` returned an ILSmax of 170%.

`Cc1ccc2c(Nc3ccc(NS(C)(=O)=O)cc3)c3cccc(C)c3nc2c1` showed an ILSmax of 70%.

Take `CCCCCCS(=O)(=O)Nc1ccc(Nc2c3ccccc3nc3c(C(N)=O)cccc23)c(OC)c1`: the ILSmax was 87%.

As for `COc1cc(NS(C)(=O)=O)ccc1Nc1c2ccccc2nc2cc(C#N)ccc12`, the ILSmax came to 93%.

As to `COc1cc(NS(C)(=O)=O)ccc1Nc1c2ccccc2nc2c(Br)cccc12`, the ILSmax worked out at 100%.

Turning to `CCCCC(=O)N(c1ccc(Nc2c3ccccc3nc3c(C)cccc23)c(OC)c1)S(C)(=O)=O`, the ILSmax worked out at 50%.

In turn, `CCCCCCCCS(=O)(=O)Nc1ccc(Nc2c3ccccc3nc3ccccc23)c(OC)c1` registered an ILSmax of 40%.

Take `NCCCCCS(=O)(=O)Nc1ccc(Nc2c3ccccc3nc3cc([N+](=O)[O-])ccc23)cc1`: the ILSmax is listed as 80%.

Regarding `CS(=O)(=O)Nc1ccc(Nc2c3ccccc3nc3cc(I)ccc23)cc1`, the ILSmax was found to be 160%.

`Cc1cccc2c(Nc3ccc(NS(=O)(=O)c4ccc(N)cc4)cc3)c3ccccc3nc12` came in with an ILSmax of 55%.

`COc1cc(NS(C)(=O)=O)ccc1Nc1c2ccccc2nc2c1ccc1ncccc12` gave an ILSmax of 83%.

The molecule `COc1cc(NS(C)(=O)=O)ccc1Nc1c2ccccc2nc2cc([N+](=O)[O-])ccc12` registered an ILSmax of 76%.

As for `COc1ccc2[nH]c3ccccc3c(=Nc3ccc(NS(C)(=O)=O)cc3OC)c2c1`, the ILSmax is listed as 35%.

In turn, `COc1cc(/C=C/C(=O)O)ccc1Nc1c2ccccc2nc2ccccc12` gave an ILSmax of 27%.

Molecule `CCOc1cc(NS(C)(=O)=O)ccc1Nc1c2ccccc2nc2ccccc12` had an ILSmax of 75%.

As for `Cc1cccc2nc3ccccc3c(Nc3ccc(NS(C)(=O)=O)cc3)c12`, the ILSmax stood at 25%.

Take `O=C(O)/C=C\c1ccccc1Nc1c2ccccc2nc2ccccc12`: the ILSmax is 25%.

Regarding `CN(c1ccccc1Nc1c2ccccc2nc2ccccc12)S(C)(=O)=O`, the ILSmax was 25%.

`Fc1ccccc1Nc1c2ccccc2nc2ccccc12` yielded an ILSmax of 25%.

In turn, `O=S(=O)(Nc1ccc(Nc2c3ccccc3nc3ccccc23)cc1)c1ccccc1` showed an ILSmax of 75%.

In the case of `COc1cccc(Nc2c3ccccc3nc3ccccc23)c1`, the ILSmax is 25%.

For the molecule `CC(C)(C)c1ccccc1Nc1c2ccccc2nc2ccccc12`, the ILSmax worked out at 25%.

As to `Nc1cccc(Nc2c3ccccc3nc3ccccc23)c1`, the ILSmax was determined as 50%.

In the case of `Fc1ccc(Nc2c3ccccc3nc3ccccc23)cc1`, the ILSmax is 25%.

Consider `Cc1ccc(Nc2c3ccccc3nc3ccccc23)cc1`, for which the ILSmax worked out at 90%.

As for `CS(=O)(=O)Nc1ccc(Nc2c3ccccc3nc3c(N)cccc23)cc1`, the ILSmax was 100%.

Take `CS(=O)(=O)Nc1ccc(Nc2c3ccccc3nc3ccccc23)c(N)c1`: the ILSmax was determined as 105%.
